Measured values from PMC6416464 (Drug Metabolism Letters, 2018).
Like-named read-outs stand apart in the source and are kept apart here.

How the values were obtained:
[1] = Metabolic stability, incubation with human liver cytosol; format: in vitro ADME; details: 1 µM test compound, 1 mg/mL protein
CYP3A4 [2] = target: T1, CYP3A4 (Homo sapiens, UniProt P08684); assay: in vitro; details: microsomes, pH 7.4
CYP2C8 = target: T2, CYP2C8 (Homo sapiens, UniProt P10632); assay: CYP inhibition in human liver microsomes, CYP2C8; details: human, human liver microsomes, pH 7.4, probe paclitaxel
T2 sequence (P10632 1-490): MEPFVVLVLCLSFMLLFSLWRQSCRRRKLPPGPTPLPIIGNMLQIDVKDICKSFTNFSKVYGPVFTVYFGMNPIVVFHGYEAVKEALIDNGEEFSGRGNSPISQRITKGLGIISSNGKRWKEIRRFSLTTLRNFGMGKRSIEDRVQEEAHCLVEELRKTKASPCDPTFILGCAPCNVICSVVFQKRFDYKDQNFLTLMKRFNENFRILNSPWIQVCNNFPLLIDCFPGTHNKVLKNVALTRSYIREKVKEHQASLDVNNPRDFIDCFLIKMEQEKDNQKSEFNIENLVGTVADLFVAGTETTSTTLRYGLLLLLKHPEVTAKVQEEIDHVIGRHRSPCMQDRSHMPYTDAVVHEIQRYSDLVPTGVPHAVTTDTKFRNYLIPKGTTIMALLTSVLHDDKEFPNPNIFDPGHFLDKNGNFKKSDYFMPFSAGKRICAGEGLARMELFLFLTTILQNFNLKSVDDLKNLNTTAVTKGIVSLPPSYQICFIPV

CYP3A4 [3] = target: T1, CYP3A4; assay: in vitro; details: microsomes, pH 7.4, % Inhibition of Control Activity CYP3A4 (substrate, testosterone)
[4] = Metabolic stability, incubation with human liver microsomes; details: 1 µM test compound, 0.5 mg/mL protein
rCYP2C9 = rCYP2C9 (Homo sapiens, UniProt P11712); assay: Metabolic stability / reaction phenotyping with recombinant human CYP2C9; details: for % Metabolized at 30 min Incubation with Human Liver Fractions/Enzymes rCYP2C9: 1 µM test compound, 100 pmol/mL; for % Contribution of CYP Enzymes (fmCYP) in Metabolism, CYP2C9 / Predicted Microsomal Clint, CYP2C9 / rCYP Clint, CYP2C9: human, recombinant human CYP2C9, 1 µM, pH 7.4
rCYP2D6 = rCYP2D6 (Homo sapiens, UniProt P10635); assay: Metabolic stability / reaction phenotyping with recombinant human CYP2D6; details: for % Metabolized at 30 min Incubation with Human Liver Fractions/Enzymes rCYP2D6: 1 µM test compound, 100 pmol/mL
rCYP1A2 = target: T3, rCYP1A2 (Homo sapiens, UniProt P05177); assay: Metabolic stability / reaction phenotyping with recombinant human CYP1A2; details: for % Metabolized at 30 min Incubation with Human Liver Fractions/Enzymes rCYP1A2: 1 µM test compound, 100 pmol/mL
T3 sequence (P05177 1-516): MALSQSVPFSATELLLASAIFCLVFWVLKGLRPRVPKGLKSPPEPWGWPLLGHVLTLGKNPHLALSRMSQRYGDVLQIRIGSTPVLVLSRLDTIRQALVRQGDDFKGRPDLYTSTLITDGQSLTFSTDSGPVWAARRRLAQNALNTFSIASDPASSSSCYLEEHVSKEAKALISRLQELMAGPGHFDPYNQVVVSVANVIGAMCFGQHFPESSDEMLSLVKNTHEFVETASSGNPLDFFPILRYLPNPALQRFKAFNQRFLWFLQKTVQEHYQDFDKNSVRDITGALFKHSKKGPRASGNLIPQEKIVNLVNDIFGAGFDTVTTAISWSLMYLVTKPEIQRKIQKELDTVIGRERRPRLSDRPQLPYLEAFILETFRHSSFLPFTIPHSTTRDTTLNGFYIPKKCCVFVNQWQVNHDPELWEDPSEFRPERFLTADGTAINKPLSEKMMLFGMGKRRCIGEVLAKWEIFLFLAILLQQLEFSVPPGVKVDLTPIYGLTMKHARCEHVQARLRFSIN

rCYP3A4 = rCYP3A4 (Homo sapiens, UniProt P08684)
rCYP2C19 = rCYP2C19 (Homo sapiens, UniProt P33261); assay: Metabolic stability / reaction phenotyping with recombinant human CYP2C19; details: for % Metabolized at 30 min Incubation with Human Liver Fractions/Enzymes rCYP2C19: 1 µM test compound, 100 pmol/mL; for % Contribution of CYP Enzymes (fmCYP) in Metabolism, CYP2C19 / Predicted Microsomal Clint, CYP2C19 / rCYP Clint, CYP2C19: human, recombinant human CYP2C19, 1 µM, pH 7.4
rCYP2C8 = target: T4, rCYP2C8 (Homo sapiens, UniProt P10632); assay: Metabolic stability / reaction phenotyping with recombinant human CYP2C8; details: for % Metabolized at 30 min Incubation with Human Liver Fractions/Enzymes rCYP2C8: 1 µM test compound, 100 pmol/mL; for % Contribution of CYP Enzymes (fmCYP) in Metabolism, CYP2C8 / Predicted Microsomal Clint, CYP2C8 / rCYP Clint, CYP2C8: human, recombinant human CYP2C8, 1 µM, pH 7.4
T4 sequence (P10632 1-490): T2 sequence (P10632 1-490)

CYP1A2 = target: T5, CYP1A2 (Homo sapiens, UniProt P05177); assay: CYP inhibition in human liver microsomes, CYP1A2
T5 sequence (P05177 1-516): T3 sequence (P05177 1-516)

[5] = 1 µM test compound, 100 pmol/mL, 30 min
[6] = human, recombinant enzyme, pH 7.4
[7] = human, recombinant human CYP2D6, 1 µM, pH 7.4
[8] = human, recombinant human CYP1A2, 1 µM, pH 7.4

T1 sequence (P08684 2-503): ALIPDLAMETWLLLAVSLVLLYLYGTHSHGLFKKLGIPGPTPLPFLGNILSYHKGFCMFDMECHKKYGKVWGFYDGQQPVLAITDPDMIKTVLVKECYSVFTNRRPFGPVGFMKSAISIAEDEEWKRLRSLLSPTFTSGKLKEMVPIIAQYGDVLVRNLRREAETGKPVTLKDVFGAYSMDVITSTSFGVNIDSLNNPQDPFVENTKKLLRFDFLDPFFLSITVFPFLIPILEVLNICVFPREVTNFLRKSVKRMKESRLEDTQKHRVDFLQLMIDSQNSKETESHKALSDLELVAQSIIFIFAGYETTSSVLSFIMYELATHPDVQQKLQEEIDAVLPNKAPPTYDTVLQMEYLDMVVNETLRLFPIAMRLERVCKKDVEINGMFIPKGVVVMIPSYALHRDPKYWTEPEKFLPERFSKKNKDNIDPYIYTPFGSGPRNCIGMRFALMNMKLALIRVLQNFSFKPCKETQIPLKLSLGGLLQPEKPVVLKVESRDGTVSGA
rCYP2C9, sequence (P11712 whole entry): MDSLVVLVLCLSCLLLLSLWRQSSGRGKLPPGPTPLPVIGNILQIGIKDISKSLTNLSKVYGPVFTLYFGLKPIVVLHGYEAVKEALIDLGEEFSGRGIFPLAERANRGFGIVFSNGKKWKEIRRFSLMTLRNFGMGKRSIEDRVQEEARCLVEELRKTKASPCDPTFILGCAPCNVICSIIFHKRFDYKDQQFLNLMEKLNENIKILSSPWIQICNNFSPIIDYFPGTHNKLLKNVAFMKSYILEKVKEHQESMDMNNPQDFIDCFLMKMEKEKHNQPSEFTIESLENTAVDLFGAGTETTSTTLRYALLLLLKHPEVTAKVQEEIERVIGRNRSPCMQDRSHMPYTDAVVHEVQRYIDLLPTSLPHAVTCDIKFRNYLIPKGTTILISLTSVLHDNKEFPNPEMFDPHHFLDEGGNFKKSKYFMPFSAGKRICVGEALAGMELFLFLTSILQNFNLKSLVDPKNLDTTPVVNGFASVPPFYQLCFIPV
rCYP2C19, sequence (P33261 whole entry): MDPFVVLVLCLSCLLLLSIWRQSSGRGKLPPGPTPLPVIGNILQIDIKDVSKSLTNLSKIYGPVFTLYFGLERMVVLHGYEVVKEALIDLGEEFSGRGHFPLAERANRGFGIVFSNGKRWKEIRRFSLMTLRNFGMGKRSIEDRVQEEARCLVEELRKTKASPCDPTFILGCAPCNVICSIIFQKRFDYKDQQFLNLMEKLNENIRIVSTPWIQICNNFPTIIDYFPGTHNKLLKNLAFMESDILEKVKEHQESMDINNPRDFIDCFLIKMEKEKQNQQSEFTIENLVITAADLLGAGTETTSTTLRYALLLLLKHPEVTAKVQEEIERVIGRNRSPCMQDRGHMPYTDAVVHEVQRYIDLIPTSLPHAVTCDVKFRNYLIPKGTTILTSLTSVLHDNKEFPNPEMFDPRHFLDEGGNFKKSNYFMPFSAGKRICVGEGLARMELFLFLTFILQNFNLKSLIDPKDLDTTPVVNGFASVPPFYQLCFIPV
rCYP2D6, sequence (P10635 whole entry): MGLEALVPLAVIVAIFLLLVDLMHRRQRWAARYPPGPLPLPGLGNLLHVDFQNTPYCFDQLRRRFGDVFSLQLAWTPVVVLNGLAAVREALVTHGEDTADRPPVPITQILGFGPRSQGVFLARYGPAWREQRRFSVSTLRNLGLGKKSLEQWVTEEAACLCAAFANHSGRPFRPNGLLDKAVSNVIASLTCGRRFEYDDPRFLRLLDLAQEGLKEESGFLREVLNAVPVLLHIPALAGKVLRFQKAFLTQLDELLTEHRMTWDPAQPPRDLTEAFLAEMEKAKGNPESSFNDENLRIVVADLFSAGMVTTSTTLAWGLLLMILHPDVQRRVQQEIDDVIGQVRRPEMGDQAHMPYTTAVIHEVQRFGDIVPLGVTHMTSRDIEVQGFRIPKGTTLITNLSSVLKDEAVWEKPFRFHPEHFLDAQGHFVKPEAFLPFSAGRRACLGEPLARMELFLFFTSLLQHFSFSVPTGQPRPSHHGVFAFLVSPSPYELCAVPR
rCYP3A4, sequence (P08684 whole entry): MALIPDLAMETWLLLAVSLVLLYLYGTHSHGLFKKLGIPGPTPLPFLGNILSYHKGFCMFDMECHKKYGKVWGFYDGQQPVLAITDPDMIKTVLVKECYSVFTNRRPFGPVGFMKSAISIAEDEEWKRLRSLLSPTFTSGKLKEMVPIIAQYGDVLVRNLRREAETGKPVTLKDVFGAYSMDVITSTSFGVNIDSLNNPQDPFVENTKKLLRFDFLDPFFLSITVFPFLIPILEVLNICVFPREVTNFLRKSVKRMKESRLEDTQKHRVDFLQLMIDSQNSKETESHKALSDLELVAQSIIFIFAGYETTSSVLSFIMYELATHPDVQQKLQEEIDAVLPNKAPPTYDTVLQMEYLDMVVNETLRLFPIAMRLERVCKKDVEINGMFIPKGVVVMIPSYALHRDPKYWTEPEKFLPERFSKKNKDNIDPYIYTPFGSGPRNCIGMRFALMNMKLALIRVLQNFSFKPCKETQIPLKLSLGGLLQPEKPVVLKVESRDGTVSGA

## CNC(=O)O/N=C/C(C)(C)S(C)(=O)=O [Aldicarb sulfone, aldicarb sulfone]
[1]
  % Metabolized at 30 min Incubation with Human Liver Fractions/Enzymes Cytosol: 0.00%
CYP3A4 [2]
  inhibition at 2 µM: < 0%
  inhibition at 10 µM: < 0%
CYP2C8
  inhibition at 2 µM: 2.77%
  inhibition at 10 µM: 4.1%
CYP3A4 [3]
  inhibition at 2 µM: 1.83%
  inhibition at 10 µM: < 0%
[4]
  % Metabolized at 30 min Incubation with Human Liver Fractions/Enzymes HLM: 1.05%

## CNC(=O)O/N=C/C(C)(C)[S+](C)[O-] (centres unmarked) [Aldicarb sulfoxide, aldicarb sulfoxide]
rCYP2C9
  % Metabolized at 30 min Incubation with Human Liver Fractions/Enzymes rCYP2C9: 0.00%
rCYP2D6
  % Metabolized at 30 min Incubation with Human Liver Fractions/Enzymes rCYP2D6: 0.00%
rCYP1A2
  % Metabolized at 30 min Incubation with Human Liver Fractions/Enzymes rCYP1A2: 0.00%
rCYP3A4; [5]
  % Metabolized at 30 min Incubation with Human Liver Fractions/Enzymes rCYP3A4: 5.91%
rCYP3A4; human, pH 7.4
  Predicted Microsomal Clint, CYP3A4: 2.254 µL/min/mg Protein
rCYP3A4; [6]
  % Contribution of CYP Enzymes (fmCYP) in Metabolism, CYP3A4: 97.66%
  rCYP Clint, CYP3A4: 0.020 µL/min/pmol
[1]
  % Metabolized at 30 min Incubation with Human Liver Fractions/Enzymes Cytosol: 0.00%
CYP3A4 [2]
  inhibition at 2 µM: < 0%
  inhibition at 10 µM: < 0%
CYP2C8
  inhibition at 2 µM: < 0%
  inhibition at 10 µM: 2.32%
CYP3A4 [3]
  inhibition at 2 µM: < 0%
  inhibition at 10 µM: < 0%
rCYP2C19
  % Metabolized at 30 min Incubation with Human Liver Fractions/Enzymes rCYP2C19: 0.85%
  % Contribution of CYP Enzymes (fmCYP) in Metabolism, CYP2C19: 2.34%
  Predicted Microsomal Clint, CYP2C19: 0.054 µL/min/mg Protein
  rCYP Clint, CYP2C19: 0.003 µL/min/pmol
rCYP2C8
  % Metabolized at 30 min Incubation with Human Liver Fractions/Enzymes rCYP2C8: 0.00%
[4]
  % Metabolized at 30 min Incubation with Human Liver Fractions/Enzymes HLM: 21.18%

## CNC(=O)O/N=C/C(C)(C)SC [Aldicarb, aldicarb]
rCYP2C9
  % Metabolized at 30 min Incubation with Human Liver Fractions/Enzymes rCYP2C9: 0.00%
  % Contribution of CYP Enzymes (fmCYP) in Metabolism, CYP2C9: 43.09%
  Predicted Microsomal Clint, CYP2C9: 2.298 µL/min/mg Protein
  rCYP Clint, CYP2C9: 0.024 µL/min/pmol
rCYP2D6
  % Metabolized at 30 min Incubation with Human Liver Fractions/Enzymes rCYP2D6: 0.00%
rCYP1A2
  % Metabolized at 30 min Incubation with Human Liver Fractions/Enzymes rCYP1A2: 0.00%
rCYP3A4; [5]
  % Metabolized at 30 min Incubation with Human Liver Fractions/Enzymes rCYP3A4: 0.00%
[1]
  % Metabolized at 30 min Incubation with Human Liver Fractions/Enzymes Cytosol: 21.08%
CYP3A4 [2]
  inhibition at 2 µM: < 0%
  inhibition at 10 µM: < 0%
CYP2C8
  inhibition at 2 µM: 2.63%
  inhibition at 10 µM: < 0%
CYP3A4 [3]
  inhibition at 2 µM: < 0%
  inhibition at 10 µM: < 0%
rCYP2C19
  % Metabolized at 30 min Incubation with Human Liver Fractions/Enzymes rCYP2C19: 6.93%
rCYP2C8
  % Metabolized at 30 min Incubation with Human Liver Fractions/Enzymes rCYP2C8: 13.26%
  % Contribution of CYP Enzymes (fmCYP) in Metabolism, CYP2C8: 56.91%
  Predicted Microsomal Clint, CYP2C8: 3.035 µL/min/mg Protein
  rCYP Clint, CYP2C8: 0.047 µL/min/pmol
[4]
  % Metabolized at 30 min Incubation with Human Liver Fractions/Enzymes HLM: 13.41%

## CN(C)CCCOc1nn(Cc2ccccc2)c2ccccc12 [Benzydamine, reference compound]
[4]
  % Metabolized at 30 min Incubation with Human Liver Fractions/Enzymes HLM: 16.45%

## COc1ccc2c(c1)[C@]13CCCC[C@@H]1[C@H](C2)N(C)CC3 [Dextromethorphan, dextromethorphan]
rCYP2D6
  % Metabolized at 30 min Incubation with Human Liver Fractions/Enzymes rCYP2D6: 99.81%

## O=C(O)Cc1ccccc1Nc1c(Cl)cccc1Cl [Diclofenac, diclofenac, reference compound]
rCYP2C9
  % Metabolized at 30 min Incubation with Human Liver Fractions/Enzymes rCYP2C9: 98.61%

## CNC(=O)Oc1cc(C)c(SC)c(C)c1 [Methiocarb, methiocarb]
rCYP2C9
  % Metabolized at 30 min Incubation with Human Liver Fractions/Enzymes rCYP2C9: 6.50%
  % Contribution of CYP Enzymes (fmCYP) in Metabolism, CYP2C9: 0.93%
  Predicted Microsomal Clint, CYP2C9: 2.151 µL/min/mg Protein
  rCYP Clint, CYP2C9: 0.022 µL/min/pmol
rCYP2D6
  % Metabolized at 30 min Incubation with Human Liver Fractions/Enzymes rCYP2D6: 99.43%
rCYP2D6; [7]
  % Contribution of CYP Enzymes (fmCYP) in Metabolism, CYP2D6: 7.46%
  Predicted Microsomal Clint, CYP2D6: 17.239 µL/min/mg Protein
  rCYP Clint, CYP2D6: 1.724 µL/min/pmol
CYP1A2
  IC50: 710 nM
rCYP1A2
  % Metabolized at 30 min Incubation with Human Liver Fractions/Enzymes rCYP1A2: 46.94%
rCYP1A2; [8]
  % Contribution of CYP Enzymes (fmCYP) in Metabolism, CYP1A2: 4.75%
  Predicted Microsomal Clint, CYP1A2: 10.987 µL/min/mg Protein
  rCYP Clint, CYP1A2: 0.211 µL/min/pmol
rCYP3A4; [5]
  % Metabolized at 30 min Incubation with Human Liver Fractions/Enzymes rCYP3A4: 98.38%
rCYP3A4; human, pH 7.4
  Predicted Microsomal Clint, CYP3A4: 188.076 µL/min/mg Protein
rCYP3A4; [6]
  % Contribution of CYP Enzymes (fmCYP) in Metabolism, CYP3A4: 81.34%
  rCYP Clint, CYP3A4: 1.694 µL/min/pmol
[1]
  % Metabolized at 30 min Incubation with Human Liver Fractions/Enzymes Cytosol: 6.93%
CYP3A4 [2]
  inhibition at 2 µM: < 0%
  inhibition at 10 µM: < 0%
CYP2C8
  inhibition at 2 µM: < 0%
  inhibition at 10 µM: < 0%
CYP3A4 [3]
  inhibition at 2 µM: 8.34%
  inhibition at 10 µM: 29.7%
rCYP2C19
  % Metabolized at 30 min Incubation with Human Liver Fractions/Enzymes rCYP2C19: 19.42%
  % Contribution of CYP Enzymes (fmCYP) in Metabolism, CYP2C19: 0.59%
  Predicted Microsomal Clint, CYP2C19: 1.367 µL/min/mg Protein
  rCYP Clint, CYP2C19: 0.072 µL/min/pmol
rCYP2C8
  % Metabolized at 30 min Incubation with Human Liver Fractions/Enzymes rCYP2C8: 41.44%
  % Contribution of CYP Enzymes (fmCYP) in Metabolism, CYP2C8: 4.94%
  Predicted Microsomal Clint, CYP2C8: 11.416 µL/min/mg Protein
  rCYP Clint, CYP2C8: 0.178 µL/min/pmol
[4]
  % Metabolized at 30 min Incubation with Human Liver Fractions/Enzymes HLM: 78.39%

## CN(Cc1cnc2nc(N)nc(N)c2n1)c1ccc(C(=O)N[C@@H](CCC(=O)O)C(=O)O)cc1 [Methotrexate, reference compound]
[1]
  % Metabolized at 30 min Incubation with Human Liver Fractions/Enzymes Cytosol: 3.18%

## CC(=O)O[C@H]1C(=O)[C@@]2(C)[C@H]([C@H](OC(=O)c3ccccc3)[C@]3(O)C[C@H](OC(=O)[C@H](O)[C@@H](NC(=O)c4ccccc4)c4ccccc4)C(C)=C1C3(C)C)[C@]1(OC(C)=O)CO[C@@H]1C[C@@H]2O [Paclitaxel, paclitaxel]
rCYP2C8
  % Metabolized at 30 min Incubation with Human Liver Fractions/Enzymes rCYP2C8: 11.21%

## CCOc1ccc(NC(C)=O)cc1 [Phenacetin, phenacetin]
rCYP1A2
  % Metabolized at 30 min Incubation with Human Liver Fractions/Enzymes rCYP1A2: 91.43%

## c1ccc2cnncc2c1 [Phthalazine, phthalazine, reference compound]
[1]
  % Metabolized at 30 min Incubation with Human Liver Fractions/Enzymes Cytosol: 90.89%

## CN(CCOc1ccc(CC2SC(=O)NC2=O)cc1)c1ccccn1 (centres unmarked) [Rosiglitazone, reference compound]
CYP2C8
  inhibition at 25 µM: 69.2%

## C[C@]12CC[C@H]3[C@@H](CCC4=CC(=O)CC[C@@]43C)[C@@H]1CC[C@@H]2O [Testosterone, testosterone, reference compound]
rCYP3A4; human, recombinant enzyme, 0.5 h, pH 7.4
  % Metabolized at 30 min Incubation with Human Liver Fractions/Enzymes rCYP3A4: 85.13%
[4]
  % Metabolized at 30 min Incubation with Human Liver Fractions/Enzymes HLM: 90.74%

## O=c1cc(-c2ccccc2)oc2c1ccc1ccccc12 [α-Nepthoflavone, α-naphthoflavone, reference compound]
CYP1A2; human, human liver microsomes, pH 7.4, probe phenacetin, Percent inhibition, positive control inhibitor, CYP1A2, concentration tested 20 nM
  inhibition at 20 nM: 62.4%
